# Measurements as given in the NIST ThermoML archive (doi:10.1016/j.fluid.2015.08.007).
# Several values for one entry are separate records, joined by “and”; a condition that tells them apart may be missing. Equal entries are not always repeated. Numbers after ± are expanded uncertainties.
# Conditions: Crystal 1; DTA
row,Normal melting temperature,SMILES
1,204 ± 2 °C,CCCC[N+]1(C)CCCC1.[Br-] [1-butyl-1-methylpyrrolidinium bromide]

# Same assay, conditions: Crystal; DTA
row,SMILES,Normal melting temperature
1,CC[N+]1(C)CCCC1.O=S(=O)([N-]S(=O)(=O)C(F)(F)F)C(F)(F)F,91 ± 2 °C
2,CCCC[N+]1(C)CCCC1.[Cl-] [1-butyl-1-methylpyrrolidinium chloride],201 ± 2 °C and 204 ± 2 °C
3,CC[N+]1(C)CCCC1.F[B-](F)(F)F [1-ethyl-1-methylpyrrolidinium tetrafluoroborate],66 ± 2 °C

# The next lines start with the values.
row,Normal melting temperature,SMILES
1,204 ± 2 °C,CCCC[N+]1(C)CCCC1.[Br-] [1-butyl-1-methylpyrrolidinium bromide]
2,152 ± 2 °C and 151 ± 2 °C,CCCC[N+]1(C)CCCC1.F[B-](F)(F)F [1-butyl-1-methylpyrrolidinium tetrafluoroborate]
